From patent publication US20170158702A1, “MULTIVALENT RAS BINDING COMPOUNDS” (KYRAS THERAPEUTICS, INC., priority 2015, published 2017)
Counter-ions that a name gives are not always drawn.

Legend:
Assay type in all cases: cell-based
[1] = tested on: NCI-H460; assay: Viability assay with NCI-H460 (CellTiter-Glo cytotoxicity assay, 72 h); details: NCI-H460 cell line, 72 h after compounds addition
Experimental: (§1) NCI-H460 (Epithelial lung tissue; carcinoma; large cell lung cancer) were cultured in RPMI Medium 1640 (Invitrogen-22400105) supplemented with 10% fetal bovine serum (FBS; Invitrogen-10099141). All the cell lines were maintained in a humidified incubator at 37° C. with 5% CO2. Cell culture media and supplements were purchased from Invitrogen, and tissue culture flasks were purchased from Corning, 96-well plates were purchased from Greiner. CellTiter-Glo Luminescent Cell Viability Assay kits were purchased from Promega (Promega-G7573), cells counter Vi-Cell was purchased from Beckman, D300e digital dispenser was purchased from Tecan, detection instrument Envision was purchased from PerkinElmer.
(§2) Paclitaxel was purchased from SELLECK, test compounds, such as any one of the compounds disclosed herein, attained solubility in DMSO and when diluted into culture media. DMSO, solutions containing the test compounds, and culture media were warmed to 37° C. or room temperature for the solution preparation and dilutions.
(§3) NCI-H460 Cell line were seeded in 96-well plates (1200/well) and allowed to adhere to overnight (100 uL/well), for drug treatments with 2 fold dilution, 9 dose points, triplicates or vehicle control, compound stock solutions were prepared in DMSO and use D300e digital dispenser to add compounds to the wells to give the indicated final drug concentrations. Final DMSO concentration was 0.5%. Cellular ATP concentrations were assessed by using the CellTiter-Glo Cell Viability Assay as per the manufacturer's instructions 72 h after compounds addition. Additional cells lines were assayed with any one of the compounds disclosed herein according to the procedures described for the viability assay with NCI-H460.

[2] = tested on: MIA PaCa-2; assay: Viability assay with MIA PaCa-2; details: MIA PaCa-2, viability assay per Example 57
Experimental: as §1, §2, §3
A viability assay with MIA PaCa-2 (Epithelial pancreas tissue; carcinoma) was performed with compounds listed in Table 15, according to the procedures described in Example 57.

[3] = tested on: HT-29; assay: Viability assay with HT-29; details: HT-29, viability assay per Example 57
Experimental: as §1, §2, §3
A viability assay with HT-29 (Colorectal adenocarcinoma) was performed with compounds listed in Table 18 according to the procedures described in Example 57.

| SMILES | EC50 [2] [µM] | EC50 [3] [µM] | EC50 [1] [µM] |
| --- | --- | --- | --- |
| FC(F)(F)Oc1ccc(-c2cn(CCCCN(c3ccccn3)c3ccccn3)c3ccc(CN4CCN(Cc5ccccc5Cl)CC4)cc23)cc1 [C205; Formic Acid] | 5 to 10 | 5 to 10 | 5 to 10 |
| COc1cccc(CC2CN(Cc3ccc4c(c3)c(-c3ccc(OC(F)(F)F)cc3CN)cn4CCCN)C2)c1 [C279; Formic Acid] | ≤ 5 | ≤ 5 | ≤ 5 |
| NCCCn1cc(-c2cccc(C(N)=O)c2)c2cc(CN3CCN(Cc4ccccc4Cl)CC3)ccc21 [C179; HCl] | ≤ 5 | ≤ 5 | ≤ 5 |
| Cc1ccc(-c2cn(CCCN)c3ccc(CC4CCN(Cc5ccccc5Cl)CC4)cc23)c(CN)c1 [C269; Formic Acid] | ≤ 5 | ≤ 5 | ≤ 5 |
| NCCCn1cc(-c2ccccc2C(N)=O)c2cc(CN3CCN(Cc4ccccc4Cl)CC3)ccc21 [C185; HCl] | 5 to 10 | 5 to 10 | 5 to 10 |
| COc1ccc(-c2cn(CCCCN)c3ccc(CN4CC5CCC(C4)N5Cc4ccccc4Cl)cc23)cc1 [C133; HCl] | ≤ 5 | ≤ 5 | ≤ 5 |
| NCc1ccc(-n2cc(-c3ccc(OC(F)(F)F)cc3)c3cc(CN4CCN(Cc5ccccc5Cl)CC4)ccc32)cn1 [C218; Formic Acid] | ≤ 5 | ≤ 5 | ≤ 5 |
| NCCCn1cc(-c2ccc(OC(F)(F)F)cc2)c2cc(CN3CCC(Nc4ccccc4Cl)CC3)ccc21 [C213; Formic Acid] | ≤ 5 | ≤ 5 | ≤ 5 |
| NCCCn1cc(-c2cn[nH]c2)c2cc(CN3CCN(Cc4ccccc4Cl)CC3)ccc21 [C192; HCl] | 5 to 10 | 5 to 10 | 5 to 10 |
| NCCCn1cc(-c2ccc(OC(F)(F)F)cc2)c2cc(CN3CCS(=O)(=O)CC3)ccc21 [C292; Formic Acid] | ≤ 5 | 5 to 10 | ≤ 5 |
| NCCCn1cc(-c2ccc(OC(F)(F)F)cc2)c2cc(CN3CCN(Cc4ccc(C(F)(F)F)cc4)CC3)ccc21 [C136; HCl] | ≤ 5 | ≤ 5 | ≤ 5 |

Continued, in another order:

| EC50 [2] [µM] | EC50 [3] [µM] | SMILES | EC50 [1] [µM] |
| --- | --- | --- | --- |
| ≤ 5 | ≤ 5 | NC1CCC(n2cc(-c3ccc(OC(F)(F)F)cc3)c3cc(CN4CCN(Cc5ccccc5Cl)CC4)ccc32)CC1 (stereo not drawn) [C212; HCl] | ≤ 5 |
| ≤ 5 | ≤ 5 | CC(=O)NCc1cc(OC(F)(F)F)ccc1-c1cn(CCCN)c2ccc(CN3CCN(Cc4ccccc4Cl)CC3)cc12 [C271; HCl] | ≤ 5 |
| ≤ 5 | ≤ 5 | NCCCn1cc(-c2ccc(OC(F)(F)F)cc2CN)c2cc(CN3CCOCC3)ccc21 [C265; HCl] | ≤ 5 |
| 5 to 10 | 5 to 10 | Cc1ncc(CN2CCN(Cc3ccc4c(c3)c(-c3ccc(OC(F)(F)F)cc3)cn4CCCN)CC2)n1C [C194; HCl] | 5 to 10 |
| ≤ 5 | ≤ 5 | CCC1CCN(Cc2ccc3c(c2)c(-c2ccc(OC(F)(F)F)cc2)cn3CCCN)CC1 [C226; HCl] | ≤ 5 |
| ≤ 5 | ≤ 5 | NCCCn1cc(-c2ccc(OC(F)(F)F)cc2CN)c2cc(CN3CCC(CC(F)(F)F)CC3)ccc21 [C252; HCl] | ≤ 5 |
| ≤ 5 | ≤ 5 | COc1ccc(-c2cn(C(C)(C)CCN)c3ccc(CN4CCN(Cc5ccccc5Cl)CC4)cc23)cc1 [C206; HCl] | ≤ 5 |
| 5 to 10 | 5 to 10 | COc1ccc(-n2c(=O)n(CCCN)c3ccc(CN4CCN(Cc5ccccc5Cl)CC4)cc32)cc1 [C200; HCl] | 5 to 10 |
| ≤ 5 | ≤ 5 | CCCCn1cc(-c2ccc(OC(F)(F)F)cc2CN)c2cc(CN3CCN(Cc4ccccc4Cl)CC3)ccc21 [C227; HCl] | ≤ 5 |
| ≤ 5 | ≤ 5 | NCCCn1cc(-c2ccc(OC(F)(F)F)cc2CN)c2cc(CN3CCC(Cc4ccccc4Cl)CC3)ccc21 [C221; HCl] | ≤ 5 |
| ≤ 5 | 5 to 10 | NCCCn1cc(-c2ccc(OC(F)(F)F)cc2CN)c2cc(CN3CCCCC3)ccc21 [C260; HCl] | 5 to 10 |
| ≤ 5 | ≤ 5 | FC(F)(F)Oc1ccc(-c2cn(CC3CCNCC3)c3ccc(CN4CCC(Cc5ccccc5Cl)CC4)cc23)cc1 [C228; HCl] | ≤ 5 |
